Consider twelve molecules from patent US20160052937A1, “Tetrahydroimidazo[1,5-d][1,4]oxazepine compound” (Eisai R&D Management Co., Ltd., priority 2014, published 2016).

The structures appear in SMILES notation.

Test [1] has as its target T1, human metabotropic glutamate receptor 2 (mGluR2) (Homo sapiens, UniProt Q14416).
T1 construct: expressed in transfected cells; co-expressing human SLC1A3), cell membrane fraction
Put plainly: [35S]GTPγS binding assay (Affinity to mGluR2). Type of test: biochemical. The note with it: cell membrane fraction of HEK293 cells stably expressing human mGluR2; glutamic acid 10 μM. The method, then:
(Preparation of Cell Membrane Fraction of HEK293 Cells Stably Expressing Human Metabotropic Glutamate Receptor 2 (mGluR2))
HEK293 cells stably expressing human mGluR2 and human glutamate transporter SLC1A3 were cultured in a Dulbecco's modified Eagle's medium with 10% fetal bovine serum (50 units/mL of penicillin, 50 μg/mL of streptomycin, 60 μg/mL of geneticin, 400 μg/mL of hygromycin B and 2 mM of glutamine) at 37° C. under 5% CO2. Confluent cell cultures were washed twice with PBS(−), and then scraped off with a cell scraper, and subjected to centrifugal separation at 4° C. and 1500 rpm for 5 minutes for collecting cells. The centrifuged sediment (cell pellet) was homogenized in a 20 mM HEPES buffer containing 10 mM EDTA (pH 7.4) by using sonicator and centrifuged at 4° C. and 1500×g for 30 minutes. The supernatant (soluble fraction) was subjected to the centrifugal separation at 4° C. and 40,000×g for 30 minutes, and thus, insoluble fraction was obtained. After additional centrifugally washing the obtained fraction with 20 mM HEPES buffer containing 10 mM EDTA (pH 7.4), the pellet was centrifugally suspended with a 20 mM HEPES buffer containing 0.1 mM EDTA, and the cell membrane fraction was obtained by the centrifugal separation at 4° C. and 40,000×g for 30 minutes. The thus obtained cell membrane fraction was suspended in a 20 mM HEPES buffer containing 0.1 mM EDTA in a protein concentration of 3 mg/mL, which was stored at −80° C.
([^35S]GTPγS binding assay)
The frozen cell membrane fraction prepared as described above was thawed before use, and the resultant was diluted with a buffer for a binding assay (final concentrations: 20 mM HEPES, 100 mM NaCl, 1 mM MgCl2, 3 μM GDP, 300 μg/mL saponin, 0.1% BSA). The compound of each example was added to a cell membrane fraction containing 1.8 to 3 μg/assay of membrane protein on a plate, followed by incubation at room temperature for 30 minutes. Thereafter, with glutamic acid (in a final concentration of 10 μM) added thereto, incubation was performed at room temperature for 15 minutes, and thereafter, [^35S]GTPγS (in a final concentration of 0.8 kBq) and 588 μg WGA-SPA beads were added thereto, followed by incubation at room temperature for 1 hour. After the incubation, the plate was subjected to the centrifugal separation at 2,500 rpm and room temperature, and then, membrane cell binding radioactivity was measured with a top count.
A [^35S]GTPγS binding amount obtained by performing the above-described reaction in the absence of glutamic acid was defined as nonspecific binding, and a difference from a [^35S]GTPγS binding amount obtained in the presence of glutamic acid was defined as specific binding. On the basis of ratios of inhibiting the specific binding at various concentrations of the compounds of the respective examples, inhibition curves were obtained. Concentrations of the compounds of the respective examples at which the specific [^35S]GTPγS binding amount was suppressed by 50% (IC50 values) were calculated on the basis of the inhibition curves and shown in Table 3.

Test [2] relates to Long-Evans rats, cognitive impairment induced by scopolamine. Put plainly: Novel object recognition (NOR) test in rats. Type of test: in vivo, rat. The note with it: oral; scopolamine hydrobromide 0.3 mg/kg i.p.; statistically significant difference in discrimination index vs scopolamine alone group. The procedure: Six-week old male Long-Evans rats were used for this test. For 2 days before starting the test, the rats were acclimated to experimental operations such as administration and a test device (that is, a black or gray plastic cage with a width of 40 cm, a depth of 30 cm and a height of 45 cm). Each test compound was dissolved in a 0.1 N hydrochloric acid to be orally administered. Thirty minutes after the administration, scopolamine hydrobromide was intraperitoneally administered at a 0.3 mg/kg dose, so as to induce cognitive impairment. After another 30 minutes, each rat was acclimated in the test device for 3 minutes, and thereafter, two blocks in the same shape were put in the test device as acquisition trial, and exploring time for each block was measured for 5 minutes. Two hours after the acquisition trial, the rat was acclimated in the test device for 3 minutes, and thereafter, the same block as those used in the acquisition trial and a new block in a different shape were put in the cage for retention trial. The exploring time for each block was measured for 3 minutes, and a ratio of the exploring time for the newly used block to the sum of the exploring times for the respective blocks was calculated as a discrimination index. The thus obtained discrimination indexes were compared among a group of rats to which a medium alone was administered (medium group), a group of rats to which scopolamine alone was administered (scopolamine alone group) and a group of rats to which both the test compound and scopolamine were administered, so as to evaluate the action of the test compound on the novel object recognition function (cognitive function) of the rats.
Each discrimination index was shown as an average and a standard error. The statistical significance between the medium group and the scopolamine alone group was analyzed by the independent t-test. The statistical significance between the scopolamine alone group and each sample group was analyzed by one-way analysis of variance and then by Dunnett's multiple comparison test. The significance level was set to 5% on both sides. […] The analysis was carried out by using Prism 5 for Windows for Japanese, ver. 5.03. A minimum effective dose at which a statistically significant difference was found between a group suffering from the cognitive impairment induced by scopolamine and a group treated with each compound is shown in Table 4.

T1 sequence (Q14416 19-872): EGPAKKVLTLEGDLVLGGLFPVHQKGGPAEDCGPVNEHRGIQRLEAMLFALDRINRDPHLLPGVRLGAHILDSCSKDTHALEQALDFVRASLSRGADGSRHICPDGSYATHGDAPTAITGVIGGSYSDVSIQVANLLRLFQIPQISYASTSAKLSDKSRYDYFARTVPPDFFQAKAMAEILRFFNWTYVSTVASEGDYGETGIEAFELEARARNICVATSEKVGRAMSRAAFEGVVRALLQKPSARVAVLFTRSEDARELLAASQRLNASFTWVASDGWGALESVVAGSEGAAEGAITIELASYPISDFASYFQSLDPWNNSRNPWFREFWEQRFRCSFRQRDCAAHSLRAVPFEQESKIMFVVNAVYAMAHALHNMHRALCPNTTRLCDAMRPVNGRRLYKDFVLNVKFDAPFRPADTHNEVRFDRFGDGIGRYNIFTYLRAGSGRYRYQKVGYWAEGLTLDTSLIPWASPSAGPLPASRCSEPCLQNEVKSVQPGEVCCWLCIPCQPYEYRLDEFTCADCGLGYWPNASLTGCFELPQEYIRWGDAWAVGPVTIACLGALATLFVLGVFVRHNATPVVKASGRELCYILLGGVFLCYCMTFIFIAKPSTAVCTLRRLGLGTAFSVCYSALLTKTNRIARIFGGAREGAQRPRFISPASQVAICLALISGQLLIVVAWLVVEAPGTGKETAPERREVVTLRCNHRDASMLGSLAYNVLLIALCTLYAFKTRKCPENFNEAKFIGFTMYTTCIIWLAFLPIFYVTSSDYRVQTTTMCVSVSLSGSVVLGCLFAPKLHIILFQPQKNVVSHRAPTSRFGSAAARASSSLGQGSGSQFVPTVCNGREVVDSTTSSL

`CC(C)NS(=O)(=O)c1ccc(-c2nc(-c3ccc(F)cc3)n3c2CCO[C@H](C)C3)cc1` [Example 1, (R)-4-(3-(4-fluorophenyl)-6-methyl-5,6,8,9-tetrahydroimidazo[1,5-d][1,4]oxazepin-1-yl)-N-isopropylbenzenesulfonamide] yielded an IC50 in test [1] of 3.7 nM. In addition, the Minimum effective dose in test [2] was 1 mg/kg, p.o.

Regarding `COc1ccc(-c2nc(-c3ccc(S(=O)(=O)NC(C)(C)C)cc3)c3n2C[C@@H](CF)OCC3)cc1` [Example 2, (S)—N-(tert-butyl)-4-(6-(fluoromethyl)-3-(4-methoxyphenyl)-5,6,8,9-tetrahydroimidazo[1,5-d][1,4]oxazepin-1-yl)benzenesulfonamide], in test [1], the IC50 came to 3.1 nM. Moreover, the Minimum effective dose in test [2] is listed as 3 mg/kg, p.o.

With `COc1ccc(-c2nc(-c3ccc(S(=O)(=O)NC4CCC4)cc3)c3n2C[C@@H](C)OCC3)cc1` [Example 3, (R)—N-cyclobutyl-4-(3-(4-methoxyphenyl)-6-methyl-5,6,8,9-tetrahydroimidazo[1,5-d][1,4]oxazepin-1-yl)benzenesulfonamide], the half-inhibitory concentration (IC50) in test [1] is 5 nM. Also, the Minimum effective dose in test [2] was 1 mg/kg, p.o.

Consider `COc1ccc(-c2nc(-c3ccc(S(=O)(=O)NC(C)C)cc3)c3n2C[C@@H](C)OCC3)cc1` [Example 8, (R)—N-isopropyl-4-(3-(4-methoxyphenyl)-6-methyl-5,6,8,9-tetrahydroimidazo[1,5-d][1,4]oxazepin-1-yl)benzenesulfonamide], for which the 50% inhibitory concentration (IC50) in test [1] was 3.1 nM. Further, the Minimum effective dose in test [2] is 3 mg/kg, p.o.

Molecule `CCNS(=O)(=O)c1ccc(-c2nc(-c3ccc(OC(F)F)cc3)n3c2CCO[C@H](CF)C3)cc1` [Example 59] displayed an IC50 in test [1] of 3.9 nM.

With `O=S(=O)(NC1CCC1)c1ccc(-c2nc(-c3ccc(OC(F)F)cc3)n3c2CCO[C@H](CF)C3)cc1` [Example 60], the IC50 in test [1] turned out to be 4.6 nM.

`CC1(NS(=O)(=O)c2ccc(-c3nc(-c4ccc(OC(F)F)cc4)n4c3CCO[C@H](CF)C4)cc2)CCC1` [Example 61]: in test [1], the IC50 stood at 3.7 nM.

`COc1ccc(-c2nc(-c3ccc(S(=O)(=O)NC(C)C)cc3)c3n2C[C@@H](C)OCC3)cc1F` [Example 62, (R)—N-isopropyl-4-(3-(3-fluoro-4-methoxyphenyl)-6-methyl-5,6,8,9-tetrahydroimidazo[1,5-d][1,4]oxazepin-1-yl)benzenesulfonamide] returned an IC50 in test [1] of 4.3 nM.

On to `COc1ccc(-c2nc(-c3ccc(S(=O)(=O)NC(C)(C)C)cc3)c3n2C[C@@H](C)OCC3)cc1F` [Example 63], for which the IC50 in test [1] amounted to 3.9 nM. This IC50 and that of the molecule before are within 1.5-fold of each other.

With `Cc1ccc(-c2nc(-c3ccc(S(=O)(=O)NC(C)(C)C)cc3)c3n2C[C@@H](C)OCC3)cc1F` [Example 64], the half-maximal inhibitory concentration (IC50) in test [1] worked out at 4.5 nM.

On to `Cc1ccc(-c2nc(-c3ccc(S(=O)(=O)NC(C)C)cc3)c3n2C[C@@H](C)OCC3)cc1F` [Example 65], for which the IC50 in test [1] turned out to be 6.7 nM.

In turn, `C[C@@H]1Cn2c(-c3ccc(OC(F)F)c(F)c3)nc(-c3ccc(S(=O)(=O)NC(C)(C)C)cc3)c2CCO1` [Example 66] showed an IC50 in test [1] of 10.9 nM.

The term IC50 denotes the point on the concentration scale where inhibition reaches its midpoint. The low end stands for higher potency, the high end for lower potency.
